Here are results for three molecules from patent publication US20260159474A1, “Aminoindane Compounds and Compositions and Methods of Their Therapeutic Use” (Solvonis Therapeutics Ireland Holdings Limited, priority 2021, published 2026).

“Also recorded” adds a separate entry of the source.

Data set [1] concerns the target T1, P-glycoprotein (P-gp, MDR1) (Homo sapiens, UniProt P08183).
T1 construct: expressed in transfected cells; host or cells: MDCKII-MDR1 (Madin-Darby Canine Kidney clone II)
As to the kind of experiment: Bidirectional permeability and P-gp substrate assay in MDCKII-MDR1 cells. In kind it is in vitro ADME. The conditions noted are these: human, MDCK-MDR1, pH 7.4; efflux ratio, MDCKII-MDR1 cells; read-out: MDCKII-MDR1 B-A ratio. As to the method:
Methods: A bidirectional permeability study was conducted to evaluate the apparent permeability (Papp) of therapeutic compounds. Additionally, the MDCKII-MDR1 cell line (Madin-Darby Canine Kidney clone II cell line heterologously expressing the human P-glycoprotein transporter) and mock cell line MDCKII were used to determine whether a compound acted as a P-gp substrate, in the absence and in the presence of a potent P-gp inhibitor. Test control items (digoxin, metoprolol, and atenolol) and control P-gp inhibitor (GF120918) stock solution were prepared in DMSO. Bidirectional assays (Apical to Basolateral [AB] and Basolateral to Apical [BA]) were run, in both the absence and presence of P-gp inhibitor GF120918 in MDCKII-MDR1 and mock cell line MDCKII, using as transport buffer HBSSH at a pH of 7.4 (n=3).
Compounds were tested at a single concentration (i.e. at […]) at one time point (i.e. 60 min). Alternative concentrations or time points may also be investigated. As reference compounds, digoxin (P-gp substrate), atenolol (low permeability) and metoprolol (high permeability) were included at a single concentration (e.g., 10 or […]) and at single time point (e.g., 60 min). Digoxin transport was evaluated in two directions (apical-to-basolateral [AB] and basolateral-to-apical [BA]) in the absence and presence of GF120918 or in mock cells, MDCKII (n=3). Atenolol and metoprolol were only tested in the AB direction in absence of P-gp inhibitor GF120918 or in mock cells, MDCKII (n=3). The integrity of the cell monolayer was evaluated after the permeability experiment using the paracellular permeability marker Lucifer yellow (LY) in the apical to basolateral direction in each well.
MDCKII or MDCKII-MDR1 cells were cultivated in DMEM (high glucose, GlutaMAXTM supplemented with pyruvate, 10% FBS HI and Pen/Strep). Cells were seeded onto microporous PET (Polyethylene Terephthalate) membranes in HTS 96-Multiwell Insert plates at a density of ˜175,000-245,000 cells/cm^2 (25000-35000 cells/well; 50 μL/well) in DMEM medium and incubated for 3-4 days at 37° C.-5% CO2. Medium was changed the day before the experiment.
Stock solutions of test items were prepared in DMSO at a concentration of 5 or 10 mM and stored at −20° C. until use. The potent P-gp inhibitor, GF120918 (stock solution 10 mM) and the reference controls digoxin, atenolol, metoprolol (stock solutions 3 or 10 mM) were prepared in DMSO and stored at −20° C. until use.
Donor working solutions of test items and reference controls were prepared at a concentration of 10 or 25 µM, diluting the stock solutions in HBSSH. Receiver working solutions contained transport buffer only. All working solutions were prepared such that the final concentration of DMSO was 1% (v/v). A donor working solution containing LY was also prepared in transport buffer at 100 µM.
MDCKII and MDCKII-MDR1 cells were preincubated (37° C., 15 to 30 minutes) in receiver working solutions containing transport buffer on apical (A) and basolateral (B) sides. Following pre-incubation, test items and control items (digoxin) transport were measured in two directions (apical to basolateral [AB]) and basolateral to apical [BA]), and these directions were performed in triplicate sets of wells, in both the absence and presence of […] GF120918 or mock MDCKII cells. For [AB] directional transport, 75 μL of donor working solution was added to the A (apical) compartment and 235 μL of receiver working solution was added to the B (basolateral) compartment. For [BA] directional transport, 235 μL donor working solution with test items or reference controls was added to the B compartment and 75 μL receiver working solution was added to the A compartment. Transport of permeability reference controls, atenolol and metoprolol, were measured in one direction (apical to basolateral [AB]) (n=3).
The cells were incubated (at 37° C., with shaking) for 60 minutes. […]

Data set [2] in a line: Rat body temperature after IP administration. The class given is in vivo, Sprague Dawley rats. The conditions noted are these: 200 minutes after injection. As to the method:
Methods and Procedure: This study was conducted in compliance with previously described procedures to assure data integrity, adherence to GLP regulations, and standard preclinical study and surgery procedures. The in vivo microdialysis technique was applied to measure the over-time variations of DA, 5-HT, and NE extracellular (EC) concentrations in conscious, freely-moving Sprague Dawley rats. At the end of each experimental session (200 minutes after injection), body temperature (° C.) of Sprague Dawley rats was monitored using a digital thermometer with a rectal probe.

For the next data set, the system named is DAT/SERT. The settings on record: Simmler et al., Br J Pharmacol. 2013; cited from earlier work.
For data set [3] the following is noted: MDMA at doses of 100-125 mg, literature; cited from earlier work.

T1 sequence (P08183 whole entry): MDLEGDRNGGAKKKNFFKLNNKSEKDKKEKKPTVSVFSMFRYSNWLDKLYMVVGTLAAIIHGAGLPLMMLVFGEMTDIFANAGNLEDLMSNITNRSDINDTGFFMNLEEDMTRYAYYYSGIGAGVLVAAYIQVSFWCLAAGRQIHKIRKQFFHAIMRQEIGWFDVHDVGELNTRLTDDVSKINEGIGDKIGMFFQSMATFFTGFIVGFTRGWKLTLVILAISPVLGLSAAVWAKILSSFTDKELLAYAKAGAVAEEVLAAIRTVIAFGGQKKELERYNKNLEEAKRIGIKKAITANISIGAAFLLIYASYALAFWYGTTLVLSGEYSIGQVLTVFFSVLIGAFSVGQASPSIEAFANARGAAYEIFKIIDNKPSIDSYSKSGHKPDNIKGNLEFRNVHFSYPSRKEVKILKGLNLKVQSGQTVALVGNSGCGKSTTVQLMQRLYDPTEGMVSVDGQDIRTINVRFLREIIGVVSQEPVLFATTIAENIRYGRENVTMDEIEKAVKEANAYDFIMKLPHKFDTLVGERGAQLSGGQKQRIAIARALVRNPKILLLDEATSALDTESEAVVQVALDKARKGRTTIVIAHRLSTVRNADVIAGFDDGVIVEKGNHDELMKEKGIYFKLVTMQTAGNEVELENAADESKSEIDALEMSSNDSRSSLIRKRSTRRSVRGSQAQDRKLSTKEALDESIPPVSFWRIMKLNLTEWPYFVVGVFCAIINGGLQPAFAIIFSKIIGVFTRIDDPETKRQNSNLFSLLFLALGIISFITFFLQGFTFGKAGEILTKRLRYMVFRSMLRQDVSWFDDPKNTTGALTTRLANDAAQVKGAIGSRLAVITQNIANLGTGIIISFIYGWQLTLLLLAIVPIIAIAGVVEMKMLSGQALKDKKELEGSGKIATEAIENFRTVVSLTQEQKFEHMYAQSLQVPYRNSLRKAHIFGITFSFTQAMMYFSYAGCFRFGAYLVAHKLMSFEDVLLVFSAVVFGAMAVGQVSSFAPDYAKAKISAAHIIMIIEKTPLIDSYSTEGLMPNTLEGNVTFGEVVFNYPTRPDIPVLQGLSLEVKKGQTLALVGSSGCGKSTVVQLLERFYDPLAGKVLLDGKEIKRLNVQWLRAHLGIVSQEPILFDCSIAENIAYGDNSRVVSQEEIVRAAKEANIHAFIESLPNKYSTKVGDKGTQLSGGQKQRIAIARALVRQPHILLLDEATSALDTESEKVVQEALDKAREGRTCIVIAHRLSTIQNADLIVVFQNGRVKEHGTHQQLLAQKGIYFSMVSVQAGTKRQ

Turning to `COC(=O)c1ccc2c(c1)CC(N)C2` (stereo not shown) [CMP-405, 2-aminoindane-5-methylcarboxylate], the efflux ratio at 60 min in data set [1] is 1.1. In addition, in data set [2], the “change in rat body temperature (rectal) relative to vehicle” value was “lower than the change observed following administration of MDMA; also recorded: significantly lower than the change in temperature caused by MDMA”.
Turning to `COc1ccc2c(c1)CC(N)C2` (stereo not shown) [MEAI, 5-methoxy-2-aminoindane], in data set [1], the efflux ratio at 60 min amounted to 1.
With `CNC(C)Cc1ccc2c(c1)OCO2` (stereo not shown) [MDMA], in data set [2], the “change in rat body temperature (rectal) relative to vehicle” value came out at 1.6 °C. Moreover, the DAT/SERT ratio in the data set with DAT/SERT was 0.8. In data set [3], the “increase in blood pressure (diastolic)” value is recorded as 14.4-25 mmg and the “increase in heart rate” value is 26-30 bpm.
